Assay results: BindingDB's records for doi:10.1021/jm00006a008 (Glaxo Research Institute, 1995)
pIC50: −log10 of the molar value.

Assays:
[1] = Inhibitory concentration against topoisomerase I obtained from calf thymus
[2] = Inhibition of bovine topoisomerase I, using cleavable complex assay.

| SMILES | pIC50 [1] | pIC50 [2] |
| --- | --- | --- |
| CC[C@]1(O)C(=O)OCc2c1cc1n(c2=O)Cc2c-1nc1ccc(F)cc1c2C(=O)O [(R)-4-Ethyl-9-fluoro-4-hydroxy-3,13-dioxo-3,4,12,13-tetrahydro-1H-2-oxa-6,12a-diaza-dibenzo[b,h]fluorene-11-carboxylic acid] | 5.51 | – |
| CC[C@@]1(O)C(=O)OCc2c1cc1n(c2=O)Cc2c-1nc1ccc(F)cc1c2C(=O)O [(S)-4-Ethyl-9-fluoro-4-hydroxy-3,13-dioxo-3,4,12,13-tetrahydro-1H-2-oxa-6,12a-diaza-dibenzo[b,h]fluorene-11-carboxylic acid] | < 4.00 | – |
| CCC1(O)C(=O)OCc2c1cc1n(c2=O)Cc2c-1nc1ccc(F)cc1c2C(=O)O (stereo unspecified) [4-Ethyl-9-fluoro-4-hydroxy-3,13-dioxo-3,4,12,13-tetrahydro-1H-2-oxa-6,12a-diaza-dibenzo[b,h]fluorene-11-carboxylic acid] | 5.49 | – |
| CCC1(O)C(=O)OCc2c1cc1n(c2=O)Cc2c-1nc1cc3c(cc1c2C(=O)O)OCCO3 (stereo unspecified) [8-ethyl-8-hydroxy-9,12-dioxo-2,3,8,9,12,14-hexahydro-11H-[1,4]dioxino[2,3-g]pyrano[3',4':6,7]indolizino[1,2-b]quinoline-15-carboxylic acid] | 4.62 | – |
| CCOC(=O)c1c2c(nc3cc4c(cc13)OCCO4)-c1cc3c(c(=O)n1C2)COC(=O)C3(O)CC (stereo unspecified) [ethyl 8-ethyl-8-hydroxy-9,12-dioxo-2,3,8,9,12,14-hexahydro-11H-[1,4]dioxino[2,3-g]pyrano[3',4':6,7]indolizino[1,2-b]quinoline-15-carboxylate] | 6.15 | – |
| CCC1(O)C(=O)OCc2c1cc1n(c2=O)Cc2c-1nc1cccc(I)c1c2C(=O)O (stereo unspecified) [4-Ethyl-4-hydroxy-10-iodo-3,13-dioxo-3,4,12,13-tetrahydro-1H-2-oxa-6,12a-diaza-dibenzo[b,h]fluorene-11-carboxylic acid] | 5.89 | – |
| CC[C@]1(O)C(=O)OCc2c1cc1n(c2=O)Cc2c-1nc1ccccc1c2C(=O)O [(R)-4-Ethyl-4-hydroxy-3,13-dioxo-3,4,12,13-tetrahydro-1H-2-oxa-6,12a-diaza-dibenzo[b,h]fluorene-11-carboxylic acid] | 5.68 | – |
| CCC1(O)C(=O)OCc2c1cc1n(c2=O)Cc2c-1nc1ccc(I)cc1c2C(=O)O (stereo unspecified) [4-Ethyl-4-hydroxy-9-iodo-3,13-dioxo-3,4,12,13-tetrahydro-1H-2-oxa-6,12a-diaza-dibenzo[b,h]fluorene-11-carboxylic acid] | 5.64 | – |
| CCC1(O)C(=O)OCc2c1cc1n(c2=O)Cc2c-1nc1cc(F)c(F)cc1c2C(=O)O (stereo unspecified) [4-Ethyl-8,9-difluoro-4-hydroxy-3,13-dioxo-3,4,12,13-tetrahydro-1H-2-oxa-6,12a-diaza-dibenzo[b,h]fluorene-11-carboxylic acid] | 5.82 | – |
| CCC1(O)C(=O)OCc2c1cc1n(c2=O)C/C(=C2\C(=O)Nc3ccc([N+](=O)[O-])cc32)C1=O (stereo unspecified) [4-Ethyl-4-hydroxy-7-[5-nitro-2-oxo-1,2-dihydro-indol-(3E)-ylidene]-1,4,7,8-tetrahydro-pyrano[3,4-f]indolizine-3,6,10-trione] | – | < 4.00 |
| CC[C@]1(O)C(=O)OCc2c1cc1n(c2=O)Cc2c-1nc1ccc(C)cc1c2C(=O)O [(R)-4-Ethyl-4-hydroxy-9-methyl-3,13-dioxo-3,4,12,13-tetrahydro-1H-2-oxa-6,12a-diaza-dibenzo[b,h]fluorene-11-carboxylic acid] | 5.72 | – |
